The source of these data is patent US9796719B2, “Compounds and pharmaceutical compositions thereof for the treatment of inflammatory disorders” (GALAPAGOS NV, priority 2013, dated 2017).

In this experiment the target is hENPP2 (UniProtKB/SwissProt Sequence ref Q13822) (Homo sapiens (Human), UniProt Q13822). The experiment can be described thus: LPC hENPP2 assay (choline release, LPC as substrate). Type of experiment: biochemical. The procedure:
The principle of the assay consists in quantifying the released choline with an enzymatic method using choline oxidase and peroxidase. Choline oxydation by choline oxydase releases betaine and peroxide. The latter is quantified in presence of HRP that converts the peroxide detection agent TOOS and 4-aminoantipyrine into quinoneimine dye. The appearance of quinoneimine dye is measured spectrophotometrically at 555 nm and is proportional to the amount of choline released by ENPP2. Inhibition of ENPP2 will result in a decrease of the signal.
The reaction is terminated and choline quantified by the addition of a 25 μL of a mixture containing 0.6 U/mL of choline oxidase, 0.6 U/mL of peroxydase, 1.8 mM TOOS, 1.2 mM amino-antipyrine, 20 mM EGTA (stop-developer solution) diluted in the buffer described above. […] is read on the Envision after an incubation of 30 min at room temperature (Excitation 555 nm, excitation light=70%).
Regarding `CCc1nc2ccc(N3CCN(CC(=O)N4C(C)CCC4C)CC3)nn2c1N(C)c1nc(-c2ccc(F)cc2)cs1` (stereo not drawn) [Cpd 32, 1-(2,5-dimethylpyrrolidin-l-yl)-2-(4-(2-ethyl-3-((4-(4-fluorophenyl)thiazol-2-yl)(methyl)amino)imidazo[1,2-b]pyridazin-6-yl)piperazin-1-yl)ethanone], the IC50 is > 1000 nM. For the compound `CCc1nc2ccc(N3CCN(CC(=O)N(C)C(C)C)CC3)nn2c1N(C)c1nc(-c2ccc(F)cc2)cs1` [Cpd 37, 2-(4-(2-ethyl-3-((4-(4-fluorophenyl)thiazol-2-yl)(methyl)amino)imidazo[1,2-b]pyridazin-6-yl)piperazin-1-yl)-N-isopropyl-N-methylacetamide], the IC50 was in the range of 100 to 500 nM. Compound `CCc1nc2ccc(N3CC(C(=O)N4CCC(O)C4)C3)nn2c1N(C)c1nc(-c2ccc(F)cc2)c(C#N)s1` (centres unmarked) [Cpd 192, 2-((2-ethyl-6-(3-(3-hydroxy-pyrrolidine-1-carbonyl)azetidin-1-yl)imidazo[1,2-b]pyridazin-3-yl)(methyl)amino)-4-(4-fluorophenyl) thiazole-5-carbonitrile] had a half-inhibitory concentration (IC50) of 100 to 500 nM. Next, `CCc1nc2ccc(N3CC[C@H](NCC(=O)N(C)C)C3)nn2c1N(C)c1nc(-c2ccc(F)cc2)c(C#N)s1` [Cpd 175, (S)-2-(1-(3-((5-cyano-4-(4-fluorophenyl)thiazol-2-yl)(methyl)amino)-2-ethylimidazo[1,2-b]pyridazin-6-yl)pyrrolidin-3-ylamino)-N,N-dimethylacetamide]: 0.01 to 100 nM. Then `CCc1nc2ccc(C3CCN(CC(=O)N4CC(O)C4)CC3)nn2c1N(C)c1nc(-c2ccc(F)cc2C#N)ns1` [Cpd 220, 2-(5-((2-ethyl-6-(1-(2-(3-hydroxyazetidin-1-yl)-2-oxoethyl)piperidin-4-yl)imidazo[1,2-b]pyridazin-3-yl)(methyl)amino)-1,2,4-thiadiazol-3-yl)-5-fluorobenzonitrile], with 100 to 500 nM; and `CCc1nc2ccc(N3CC(NS(C)(=O)=O)C3)nn2c1N(C)c1nc(-c2ccc(F)cc2)cs1` [Cpd 158, N-(1-(2-ethyl-3-((4-(4-fluorophenyl)thiazol-2-yl)(methyl)amino)imidazo[1,2-b]pyridazin-6-yl)azetidin-3-yl)methane-sulfonamide], with 500 to 1000 nM; and `CCc1nc2ccc(N3CC(C(=O)N4CCOCC4)C3)nn2c1N(C)c1nc(-c2ccc(F)cc2)c(C#N)s1` [Cpd 191, 2-((2-ethyl-6-(3-(morpholine-4-carbonyl)azetidin-1-yl)imidazo[1,2-b]pyridazin-3-yl)(methyl)amino)-4-(4-fluorophenyl) thiazole-5-carbonitrile], with 100 to 500 nM.

For the compound `CCc1nc2ccc(C3CCNCC3)nn2c1N(C)c1nc(-c2ccc(F)cc2C#N)ns1` [Compound 219, 2-(5-((2-ethyl-6-(piperidin-4-yl)imidazo[1,2-b]pyridazin-3-yl)(methyl)amino)-1,2,4-thiadiazol-3-yl)-5-fluorobenzonitrile], the concentration for half-maximal inhibition (IC50) is > 1000 nM. Then `CCc1nc2ccc(N3CCC(N4CCC(O)CC4)C3)nn2c1N(C)c1nc(-c2ccc(F)cc2)c(C#N)s1` (centres unmarked) [Cpd 182, 2-((2-ethyl-6-(3-(4-hydroxypiperidin-1-yl)pyrrolidin-1-yl)imidazo[1,2-b]pyridazin-3-yl)(methyl)amino)-4-(4-fluorophenyl) thiazole-5-carbonitrile], with 0.01 to 100 nM; and `CCc1nc2ccc(N3CCC(CO)C3)nn2c1N(C)c1nc(-c2ccc(F)cc2)c(CO)s1` (centres unmarked) [Compound 144, (1-(2-ethyl-3-((4-(4-fluorophenyl)-5-(hydroxymethyl)thiazol-2-yl)(methyl)amino)imidazo[, 2-b]pyridazin-6-yl)pyrrolidin-3-yl)methanol], with 500 to 1000 nM. Compound `CCc1nc2ccc(N3CCC(CNC(=O)C4CCOCC4)CC3)nn2c1N(C)c1nc(-c2ccc(F)cc2)cs1` [Cpd 107, N-((1-(2-ethyl-3-((4-(4-fluorophenyl)thiazol-2-yl)(methyl)amino)imidazo[1,2-b]pyridazin-6-yl)piperidin-4-yl)methyl) tetrahydro-2H-pyran-4-carboxamide] had a half-inhibitory concentration (IC50) of 500 to 1000 nM. As to `CCc1nc2cnc(C3=CCN(S(C)(=O)=O)CC3)cn2c1N(C)c1nc(-c2ccc(F)cc2)c(C#N)s1` [Cpd 20, 2-((2-ethyl-6-(1-(methylsulfonyl)-1,2,3,6-tetrahydropyridin-4-yl)imidazo[1,2-a]pyrazin-3-yl)(methyl)amino)-4-(4-fluorophenyl) thiazole-5-carbonitrile], the IC50 was > 1000 nM. Then `CCc1nc2ccc(N3CCC(NC(=O)C4CCN(C(=O)OC(C)(C)C)CC4)CC3)nn2c1N(C)c1nc(-c2ccc(F)cc2)cs1` [Cpd 87, tert-butyl 4-(1-(2-ethyl-3-((4-(4-fluorophenyl)thiazol-2-yl)(methyl)amino)imidazo[1,2-b]pyridazin-6-yl)piperidin-4-ylcarbamoyl) piperidine-1-carboxylate], with > 1000 nM; and `CCc1nc2cnc(N3CCNCC3)cn2c1N(C)c1nc(-c2ccc(F)cc2C#N)cs1` [Cpd 15, 2-(2-((2-ethyl-6-(piperazin-1-yl)imidazo[1,2-a]pyrazin-3-yl)(methyl)amino)thiazol-4-yl)-5-fluorobenzonitrile], with > 1000 nM. Next, `CCc1nc2ccc(N3CCC(C(=O)NCCO)C3)nn2c1N(C)c1nc(-c2ccc(F)cc2)cs1` (centres unmarked) [Cpd 140, 1-(2-ethyl-3-((4-(4-fluorophenyl)thiazol-2-yl)(methyl)amino)imidazo[1,2-b]pyridazin-6-yl)-N-(2-hydroxyethyl) pyrrolidine-3-carboxamide]: > 1000 nM. Then `CCOC(=O)NCCN1CCN(c2ccc3nc(CC)c(N(C)c4nc(-c5ccc(F)cc5)cs4)n3n2)CC1` [Cpd 58, ethyl 2-(4-(2-ethyl-3-((4-(4-fluorophenyl)thiazol-2-yl)(methyl)amino)imidazo[1,2-b]pyridazin-6-yl)piperazin-1-yl)ethylcarbamate], with > 1000 nM.

Take `CCc1nc2ccc(N3CCC(O)(CNC(C)=O)C3)nn2c1N(C)c1nc(-c2ccc(F)cc2)c(C#N)s1` (centres unmarked) [Cpd 169, N-((1-(3-((5-cyano-4-(4-fluorophenyl)thiazol-2-yl)(methyl)amino)-2-ethylimidazo[1,2-b]pyridazin-6-yl)-3-hydroxypyrrolidin-3-yl)methyl)acetamide]: the IC50 lay in the range of 0.01 to 100 nM. Then `CCc1nc2ccc(N3CCC(=O)C3)nn2c1N(C)c1nc(-c2ccc(F)cc2)c(Cl)s1` [Compound 132, 1-(3-((5-chloro-4-(4-fluorophenyl)thiazol-2-yl)(methyl)amino)-2-ethylimidazo[1,2-b]pyridazin-6-yl)pyrrolidin-3-one], with > 1000 nM; and `CCc1nc2ccc(N3CC(NS(C)(=O)=O)C3)nn2c1N(C)c1nc(-c2ccc(F)cc2)c(C#N)s1` [Cpd 190, N-(1-(3-((5-cyano-4-(4-fluorophenyl)thiazol-2-yl)(methyl)amino)-2-ethylimidazo[1,2-b]pyridazin-6-yl)azetidin-3-yl)methane-sulfonamide], with 0.01 to 100 nM; and `CCc1nc2ccc(N3CCC(c4ccccc4)CC3)nn2c1N(C)c1nc(-c2ccc(F)cc2)cs1` [Cpd 113, N-(2-ethyl-6-(4-phenylpiperidin-1-yl)imidazo[1,2-b]pyridazin-3-yl)-4-(4-fluorophenyl)-N-methylthiazol-2-amine], with > 1000 nM. Next, `CCc1nc2ccc(N3CCN(CC(=O)NCCO)CC3)nn2c1N(C)c1nc(-c2ccc(F)cc2)cs1` [Cpd 35, 2-(4-(2-ethyl-3-((4-(4-fluorophenyl)thiazol-2-yl)(methyl)amino)imidazo[1,2-b]pyridazin-6-yl)piperazin-1-yl)-N-(2-hydroxyethyl) acetamide]: > 1000 nM; `CCc1nc2ccc(N3CCC4(CN(C)C(=O)O4)C3)nn2c1N(C)c1nc(-c2ccc(F)cc2)c(CO)s1` (centres unmarked) [Cpd 120, 7-(2-ethyl-3-((4-(4-fluorophenyl)-5-(hydroxymethyl)thiazol-2-yl)(methyl)amino)imidazo[1,2-b]pyridazin-6-yl)-3-methyl-1-oxa-3,7-diazaspiro[4.4] nonan-2-one]: 100 to 500 nM; `CCc1nc2ccc(N3CCN(CC4CNC(=O)O4)CC3)nn2c1N(C)c1nc(-c2ccc(F)cc2)c(CO)s1` (centres unmarked) [Cpd 41, 5-((4-(2-ethyl-3-((4-(4-fluorophenyl)-5-(hydroxymethyl)thiazol-2-yl)(methyl)amino)imidazo[1,2-b]pyridazin-6-yl)piperazin-1-yl)methyl) oxazolidin-2-one]: 500 to 1000 nM. In turn, `CCc1nc2ccc(N3CCC(O)(CNC(=O)C(C)C)C3)nn2c1N(C)c1nc(-c2ccc(F)cc2)c(C#N)s1` (centres unmarked) [Cpd 170, N-((1-(3-((5-cyano-4-(4-fluorophenyl)thiazol-2-yl)(methyl)amino)-2-ethylimidazo[1,2-b]pyridazin-6-yl)-3-hydroxypyrrolidin-3-yl)methyl) isobutyramide] displayed a half-inhibitory concentration (IC50) of 100 to 500 nM. Next, `CCc1nc2ccc(C3CCN(CC(=O)NC)CC3)nn2c1N(C)c1nc(-c2ccc(F)cc2C#N)cs1` [Cpd 209, 2-(4-(3-((4-(2-cyano-4-fluorophenyl)thiazol-2-yl)(methyl)amino)-2-ethylimidazo[1,2-b]pyridazin-6-yl)piperidin-1-yl)-N-methylacetamide]: 100 to 500 nM; `CCc1nc2ccc(N3CCN(CC(=O)N(C)C)CC3)nn2c1N(C)c1nc(-c2ccc(F)cc2C)cs1` [Cpd 73, 2-(4-(2-ethyl-3-((4-(4-fluoro-2-methylphenyl)thiazol-2-yl)(methyl)amino)imidazo[1,2-b]pyridazin-6-yl)piperazin-1-yl)-N,N-dimethylacetamide]: 100 to 500 nM.

Broadly, the IC50 is the concentration that gives 50% inhibition. A high value points to lower potency.
